Patent publication US4965280A, “Antifungal carbinols” (E. I. Du Pont de Nemours and Company, priority 1989, dated 1990)
In brackets after ≈: the same amount, converted by molar mass. Where two headings read alike, the source gives them in different places.

How the values were obtained:
[1] = tested on: Candida albicans ATCC 11651; assay: In vitro antifungal MIC, microtiter broth dilution; details: Candida albicans, ATCC11651, 24 h, read-out: MIC values, C. albicans, 30°, 24 hours
[2] = tested on: Candida albicans ATCC 11651; assay: In vivo systemic Candida infection in mice, primary assay; parameters: species or system Candida albicans; CF-1 female mice; details: Candida albicans, 150 mg/kg per day, read-out: % Survival
In short: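 CF-1 female mice (20 g, 10 per group) were infected IV with 0.2 ml of 1×10^7/ml C. albicans ATCC 11651, then given test compound subcutaneously at 50 or 150 mg/kg/day at 1 and 6 h post-infection and once daily for three more days. Survival was followed for 21 days against infected untreated mice; ≥70% protection at 14 days was scored active.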

[3] = tested on: Aspergillus fumigatus ATCC 28214; assay: In vitro antifungal MIC, microtiter broth dilution; details: Aspergillus fumigatus, ATCC28214, 24 h, read-out: MIC values, A. fumigatus, 30°, 24 hours
Pyricularia oryzae = assay: whole plant or invertebrate; format: in vivo; details: Pyricularia oryzae, 120 h, read-out: disease control rating, Ex. E, 100 PPM
Venturia inaequalis = assay: Example A apple scab; format: in vivo; details: 100 PPM, read-out: disease control rating, Ex. A
In short: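 Spray application to run-off on apple seedlings; compound at 100 or 20 ppm in water with 250 ppm TREM 014 (polyhydric alcohol esters) and 6% acetone of final volume.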

Botrytis cinerea = assay: Example C bean grey mold; format: in vivo; details: Botrytis cinerea, 24 h, 100 PPM; read-out: disease control rating, Ex. C
In short: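 Spray rates: 100 and 20 ppm. Vehicle: purified water with 6% acetone by final volume plus 250 ppm TREM 014 (polyhydric alcohol esters). Host plants, broad bean seedlings, were wetted until run-off.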

[4] = tested on: Cercosporidium personatum; assay: Example B Peanut Late Leafspot; format: in vivo; details: Nothopassalora personata; 100 PPM; read-out: disease control rating, Ex. B
In short: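 Spray suspensions at 100 or 20 ppm, prepared from acetone solutions (acetone 6% of final volume) in water carrying 250 ppm of a polyhydric alcohol ester surfactant, were applied to peanut seedlings until run-off.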

[5] = tested on: Fusarium oxysporum f. sp. cucumerinum; assay: Example L cucumber wilt; format: in vivo; details: 336 h, 5 kg/ha, read-out: disease control rating, Ex. L
Protocol: […] Seeds and soil were then inoculated with a mixture of sand, cereal and mycelium of the fungus Fusarium oxysporum f. sp. cucumerinum, causal agent of cucumber wilt, and incubated in a growth chamber at 30° C. for 14 days. Disease ratings were then made.

Sclerotium rolfsii = assay: Example M southern blight; format: in vivo; details: Agroathelia rolfsii, 336 h; 5 kg/ha; read-out: disease control rating, Ex. M
Protocol: […] Seeds and soil were then inoculated with a mixture of sand, cereal and mycelium of the fungus Sclerotium rolfsii, causal agent of sourthern blight, and incubated in a growth chamber at 30° C. for 14 days. Disease ratings were then made.

RICE INDICA EFF = assay: Test C rice paddy; format: in vivo; details: Oryza sativa, 504 h, 21 days, read-out: plant response; for pest or weed control at 64 g/ha: 0064 G/HA; for pest or weed control at 125 g/ha: 0125 G/HA; for pest or weed control at 250 g/ha: 0250 G/HA; for pest or weed control at 500 g/ha: 0500 G/HA
Description: (§1) Sixteen cm diameter Airlite plastic pots were partially filled with Tama slit loam soil and the soil saturated with water. Japonica and Indica rice seedlings a the 2.0 to 2.5 leaf stage were transplanted into 1/3 of the pots. Into another third of the pots were transplanted seedling or sprouted tubers of water plantain (Alisma trivale), Scripus (Scirpus paludosus), Cyperus (Cyperus esculentus), and arrowhead (Sagittaria spp.). The remaining pots were planted with barnyardgrass (Echinochloa crusgalli) seeds and sprouted tubes of water chestnut (Eleocharis spp.). These weeds all represent major rice weeds or genera of weeds important in rice. Three to four days after planting, the water level was raised to 3 cm (about 1200 ml/pot) and maintained a this level throughout the test. Chemical treatments were applied directly to the paddy water, within 24 hours of raising the water, after being formulated in a nonphytotoxic solvent. The pots were maintained in the greenhouse.

WATERCHESTNUT = assay: Test C rice paddy; format: in vivo, Eleocharis spp.; details: Eleocharis, 504 h, 21 days, read-out: plant response; for pest or weed control at 64 g/ha: 0064 G/HA; for pest or weed control at 125 g/ha: 0125 G/HA; for pest or weed control at 250 g/ha: 0250 G/HA; for pest or weed control at 500 g/ha: 0500 G/HA
Description: as §1

YELLOW NUTSEDGE = assay: Test C rice paddy; format: in vivo, Cyperus esculentus; details: 21 days
Description: as §1

Rhizoctonia solani = assay: Example K cotton blight; format: in vivo; details: 336 h, 5 kg/ha, read-out: disease control rating, Ex. K
Protocol: […] Seeds and soil were then inoculated with a mixture of sand, cereal and mycelium of the fungus Rhizoctonia solani, causal agent of cotton blight, and incubated in a growth chamber at 30° C. for 14 days. Disease ratings were then made.

C=C(c1ccccc1)C(O)(Cn1cncn1)c1ccc(Cl)cc1 (stereo not shown) [Example 51, 2-(4-Chlorophenyl)-3-phenyl-1-(1H-1,2,4-triazol-1-yl)-3-buten-2-ol]
MIC [1]: 0.03 µg/mL (≈ 0.0921 µM) | responders at 150 mg/kg ([2]; ATCC11651, 168 h, day 7): 100% | responders at 150 mg/kg ([2]; ATCC11651, 336 h, day 14): 100% | responders at 150 mg/kg ([2]; ATCC11651, 504 h, day 21): 80% | MIC [3]: 3.2 µg/mL (≈ 9.82 µM) | pest or weed control at 100 ppm (Pyricularia oryzae): 0% | pest or weed control at 100 ppm (Venturia inaequalis): 100% | pest or weed control at 100 ppm (Botrytis cinerea): 96% | pest or weed control at 100 ppm [4]: 100%

C=C(c1ccccc1)C(O)(Cn1cncn1)c1ccc(F)cc1F (stereo not shown) [Example 52, 2-(2,4-Difluorophenyl)-3-phenyl-1-(1H-1,2,4-triazol-1-yl)-3-buten-2-ol]
pest or weed control at 5000 g/ha [5]: 0% | MIC [1]: 0.03 µg/mL (≈ 0.0916 µM) | responders at 150 mg/kg ([2]; ATCC11651, 168 h, day 7): 100% | responders at 150 mg/kg ([2]; ATCC11651, 336 h, day 14): 100% | responders at 150 mg/kg ([2]; ATCC11651, 504 h, day 21): 90% | MIC [3]: 0.4 µg/mL (≈ 1.22 µM) | pest or weed control at 100 ppm (Pyricularia oryzae): 93% | pest or weed control at 100 ppm (Venturia inaequalis): 100% | pest or weed control at 5000 g/ha (Sclerotium rolfsii): 0% | pest or weed control at 100 ppm (Botrytis cinerea): 95% | pest or weed control at 100 ppm [4]: 100%

C=C(c1ccccc1)C(O)(Cn1cncn1)c1ccc(Cl)cc1Cl (stereo not shown) [Example 50, 2-(2,4-Dichlorophenyl)-3-phenyl-1-(1H-1,2,4-triazol-1-yl)-3-buten-2-ol]
pest or weed control at 5000 g/ha [5]: 0% | pest or weed control at 64 g/ha (RICE INDICA EFF): 0% | pest or weed control at 125 g/ha (RICE INDICA EFF): 40% | pest or weed control at 250 g/ha (RICE INDICA EFF): 30% | pest or weed control at 500 g/ha (RICE INDICA EFF): 70% | pest or weed control at 1000 g/ha (RICE INDICA EFF): 80% | MIC [1]: 0.1 µg/mL (≈ 0.278 µM) | responders at 150 mg/kg ([2]; ATCC11651, 168 h, day 7): 100% | responders at 150 mg/kg ([2]; ATCC11651, 336 h, day 14): 90% | responders at 150 mg/kg ([2]; ATCC11651, 504 h, day 21): 50% | pest or weed control at 64 g/ha (WATERCHESTNUT): 0% | pest or weed control at 125 g/ha (WATERCHESTNUT): 0% | pest or weed control at 250 g/ha (WATERCHESTNUT): 0% | pest or weed control at 500 g/ha (WATERCHESTNUT): 0% | pest or weed control at 1000 g/ha (WATERCHESTNUT): 0% | MIC [3]: 0.8 µg/mL (≈ 2.22 µM) | pest or weed control at 100 ppm (Pyricularia oryzae): 86% | plant response (YELLOW NUTSEDGE; 0064 G/HA): 0 | plant response (YELLOW NUTSEDGE; 0125 G/HA): 0 | plant response (YELLOW NUTSEDGE; 0250 G/HA): 0 | plant response (YELLOW NUTSEDGE; 0500 G/HA): 30 | plant response (YELLOW NUTSEDGE; 1000 G/HA): 50 | pest or weed control at 100 ppm (Venturia inaequalis): 100% | pest or weed control at 100 ppm (Botrytis cinerea): 98% | pest or weed control at 100 ppm [4]: 100%

C=C(c1ccc(F)cc1)C(O)(Cn1cncn1)c1ccc(F)cc1F (stereo not shown) [Example 4, 2-(2,4-Difluorophenyl)-3-(4-fluorophenyl)-1-(1H-1,2,4-triazol-1-yl)-3-buten-2-ol]
MIC [1]: 0.03 µg/mL (≈ 0.0869 µM) | responders at 150 mg/kg ([2]; ATCC11651, 168 h, day 7): 100% | responders at 150 mg/kg ([2]; ATCC11651, 336 h, day 14): 50% | pest or weed control at 5000 g/ha (Rhizoctonia solani): 0% | MIC [3]: 0.8 µg/mL (≈ 2.32 µM) | pest or weed control at 100 ppm (Pyricularia oryzae): 96% | pest or weed control at 100 ppm (Venturia inaequalis): 100% | pest or weed control at 5000 g/ha (Sclerotium rolfsii): 0% | pest or weed control at 100 ppm (Botrytis cinerea): 88% | pest or weed control at 100 ppm [4]: 100%

C=C(c1ccc(Cl)cc1)C(O)(Cn1cncn1)c1ccccc1F (stereo not shown) [Example 669]
pest or weed control at 64 g/ha (RICE INDICA EFF): 0% | pest or weed control at 125 g/ha (RICE INDICA EFF): 0% | pest or weed control at 250 g/ha (RICE INDICA EFF): 0% | pest or weed control at 500 g/ha (RICE INDICA EFF): 0% | pest or weed control at 1000 g/ha (RICE INDICA EFF): 0% | MIC [1]: 0.03 µg/mL (≈ 0.0873 µM) | responders at 150 mg/kg ([2]; ATCC11651, 168 h, day 7): 100% | responders at 150 mg/kg ([2]; ATCC11651, 336 h, day 14): 100% | responders at 150 mg/kg ([2]; ATCC11651, 504 h, day 21): 100% | pest or weed control at 64 g/ha (WATERCHESTNUT): 0% | pest or weed control at 125 g/ha (WATERCHESTNUT): 0% | pest or weed control at 250 g/ha (WATERCHESTNUT): 0% | pest or weed control at 500 g/ha (WATERCHESTNUT): 0% | pest or weed control at 1000 g/ha (WATERCHESTNUT): 0% | pest or weed control at 5000 g/ha (Rhizoctonia solani): 0% | MIC [3]: 0.8 µg/mL (≈ 2.33 µM) | pest or weed control at 100 ppm (Pyricularia oryzae): 96% | plant response (YELLOW NUTSEDGE; 0064 G/HA): 0 | plant response (YELLOW NUTSEDGE; 0125 G/HA): 0 | plant response (YELLOW NUTSEDGE; 0250 G/HA): 0 | plant response (YELLOW NUTSEDGE; 0500 G/HA): 60 | plant response (YELLOW NUTSEDGE; 1000 G/HA): 80 | pest or weed control at 100 ppm (Venturia inaequalis): 100% | pest or weed control at 5000 g/ha (Sclerotium rolfsii): 0% | pest or weed control at 100 ppm (Botrytis cinerea): 90% | pest or weed control at 100 ppm [4]: 100%

C=C(c1ccc(Cl)cc1Cl)C(O)(Cn1cncn1)c1ccccc1F (stereo not shown) [Example 107]
pest or weed control at 64 g/ha (RICE INDICA EFF): 0% | pest or weed control at 125 g/ha (RICE INDICA EFF): 0% | pest or weed control at 250 g/ha (RICE INDICA EFF): 30% | pest or weed control at 500 g/ha (RICE INDICA EFF): 40% | pest or weed control at 1000 g/ha (RICE INDICA EFF): 50% | pest or weed control at 64 g/ha (WATERCHESTNUT): 0% | pest or weed control at 125 g/ha (WATERCHESTNUT): 0% | pest or weed control at 250 g/ha (WATERCHESTNUT): 40% | pest or weed control at 500 g/ha (WATERCHESTNUT): 60% | pest or weed control at 1000 g/ha (WATERCHESTNUT): 30% | plant response (YELLOW NUTSEDGE; 0064 G/HA): 0 | plant response (YELLOW NUTSEDGE; 0125 G/HA): 0 | plant response (YELLOW NUTSEDGE; 0250 G/HA): 50 | plant response (YELLOW NUTSEDGE; 0500 G/HA): 30 | plant response (YELLOW NUTSEDGE; 1000 G/HA): 95

C=C(c1ccc(F)cc1)C(O)(Cn1cncn1)c1ccccc1F (stereo not shown) [Example 644]
MIC [1]: 0.03 µg/mL (≈ 0.0916 µM) | responders at 150 mg/kg ([2]; ATCC11651, 168 h, day 7): 80% | responders at 150 mg/kg ([2]; ATCC11651, 336 h, day 14): 70% | responders at 150 mg/kg ([2]; ATCC11651, 504 h, day 21): 50% | pest or weed control at 5000 g/ha (Rhizoctonia solani): 0% | MIC [3]: 0.4 µg/mL (≈ 1.22 µM) | pest or weed control at 100 ppm (Pyricularia oryzae): 100% | pest or weed control at 100 ppm (Venturia inaequalis): 100% | pest or weed control at 100 ppm (Botrytis cinerea): 94% | pest or weed control at 100 ppm [4]: 100%
